Experimental data as given in US12239627B2, “Method of treating conditions related to the PGI2 receptor” (Arena Pharmaceuticals, Inc., priority 2014, dated 2025).

Experiment: Phase 1 multiple ascending dose, dose titration study with healthy subjects (adverse events, tolerated dose)
Format: in vivo, human
Description: This study was a phase 1, randomized, double-blind, placebo-controlled, multiple-dose, dose titration study. A titration interval of 6 days was employed, with each dose being administered for at least 5 days. One goal was to determine the effect of dose titration on adverse effects.
In each of two subject cohorts, Cohort 1 and Cohort 2, subjects were treated at each dose level for duration of 5 days with exception of the last dose level which included 7 days of treatment.
The protocol was amended to provide for an additional cohort, Cohort 3, in order to evaluate a different dose escalation regimen, as disclosed below.
Cohorts 1 and 2: Two groups of 15 subjects were enrolled and randomized to receive placebo (5 subjects per Cohort) or a starting dose of 0.05 mg Compound 1 (10 subjects per Cohort) on Day I. Once daily (q.d.) dosing continued through 5 days. If tolerated, the next dose escalation (placebo or 0.1 mg q.d. Compound 1) occurred on Day 6 and this dose was administered daily through Day 10.
Subsequent dose escalations were to occur in the same manner every 6th day for up to 3 additional dose escalations if tolerated (placebo or 0.2, 0.3, and 0.4 mg Compound 1) with the final dose maintained for a duration of 7 days. The dose could be decreased (“de-escalated”) or increased (“re-escalated”) based on assessment of safety and tolerability.
Cohort 3: One group of 25 subjects (S placebo and 20 active) were enrolled and randomized to receive a starting dose of 0.01 mg Compound 1 twice daily or placebo on Day 1. Twice daily dosing continued through 5 days. If tolerated, the next dose escalation (placebo or Compound 1 0.02 mg twice daily) occurred on Day 6 and this dose was administered daily through Day 10. Subsequent dose escalations were to occur in the same manner every 6th day for up to 4 additional dose escalations if tolerated (placebo or 0.03, 0.04. 0.05, and 0.07 mg twice daily Compound 1). The dose could be decreased (“de-escalated”) or increased (“re-escalated”) based on assessment of safety and tolerability. The doses tested in this cohort were 0.01, 0.02, 0.03, 0.04, 0.05, and 0.07 mg administered twice daily for a total daily dose of 0.02, 0.04, 0.06, 0.08, 0.1, and 0.14 mg, respectively.
Compound 1 capsules were provided as 0.01 mg (all Cohorts) and 0.1 mg (Cohorts 1 and 2 only) strengths.

[1] = Cohort 3, twice daily, 0.07 mg (N = 4)
[2] = Cohort 3, twice daily, Total (all doses) (N = 20)
[3] = Cohorts 1 and 2, once daily, 0.03 mg (N = 4)
[4] = Cohorts 1 and 2, once daily, 0.05 mg (N = 20)
[5] = Cohorts 1 and 2, once daily, 0.1 mg (N = 16)
[6] = Cohorts 1 and 2, once daily, 0.2 mg (N = 5)
[7] = Cohorts 1 and 2, once daily, 0.3 mg (N = 1)
[8] = Cohorts 1 and 2, once daily, 0.4 mg (N = 1)
[9] = Cohorts 1 and 2, once daily, Total (all doses) (N = 20)
[10] = Cohorts 1 and 2, 0.05 mg once daily

O=C(O)COC[C@H]1CC[C@H](COC(=O)N(c2ccccc2)c2ccc(Cl)cc2)CC1 [Compound 1, 2-(((1r,4r)-4-(((4-chlorophenyl)(phenyl)carbamoyloxy)methyl)cyclohexyl)methoxy)acetic acid]
Adverse Events (no. of subjects) leading to Decrease of Dose: Priapism [1]: 0 subjects | Adverse Events (no. of subjects) leading to Decrease of Dose: Vomiting [1]: 0 subjects | Adverse Events (no. of subjects) leading to Decrease of Dose: Abdominal pain [2]: 2 subjects | Adverse Events (no. of subjects) leading to Decrease of Dose: Arthralgia [2]: 2 subjects | Adverse Events (no. of subjects) leading to Decrease of Dose: Chest discomfort [2]: 1 subjects | Adverse Events (no. of subjects) leading to Decrease of Dose: Chest pain [2]: 1 subjects | Adverse Events (no. of subjects) leading to Decrease of Dose: Diarrhoea [2]: 2 subjects | Adverse Events (no. of subjects) leading to Decrease of Dose: Dizziness [2]: 3 subjects | Adverse Events (no. of subjects) leading to Decrease of Dose: Headache [2]: 10 subjects | Adverse Events (no. of subjects) leading to Decrease of Dose: Jaw pain [2]: 1 subjects | Adverse Events (no. of subjects) leading to Decrease of Dose: Myalgia [2]: 4 subjects | Adverse Events (no. of subjects) leading to Decrease of Dose: Nausea [2]: 5 subjects | Adverse Events (no. of subjects) leading to Decrease of Dose: Palpitations [2]: 1 subjects | Adverse Events (no. of subjects) leading to Decrease of Dose: Priapism [2]: 1 subjects | Adverse Events (no. of subjects) leading to Decrease of Dose: Vomiting [2]: 1 subjects | Tolerability of the starting dose (Cohort 3, 0.01 mg twice daily): all of the subjects were able to tolerate | Tolerability of the first escalation (Cohort 3, 0.02 mg twice daily): all of the subjects were able to tolerate | Subjects who completed the study at the dose (Cohort 3, 0.03 mg twice daily): Five | Subjects able to escalate to the dose level through study completion (Cohort 3, 0.04 mg twice daily): Two | Subjects able to escalate to the dose level through study completion (Cohort 3, 0.05 mg): Five | Tolerability of the dose (Cohort 3, 0.07 mg twice daily): tolerated through study completion | Subjects able to escalate to the dose (Cohort 3, 0.07 mg twice daily, highest dose level): Two | Subjects who discontinued treatment due to an adverse event (Cohort 3, Day 20): One | Subjects who received 0.03 mg as highest dose for at least 3 days (Cohorts 1 and 2): 0.03 mg-17 subjects | Subjects who received 0.1 mg as highest dose for at least 3 days (Cohorts 1 and 2): 0.1 mg-8 subjects | Subjects who received 0.2 mg as highest dose for at least 3 days (Cohorts 1 and 2): 0.2 mg-1 subjects | Subjects who received 0.30 mg as highest dose for at least 3 days (Cohorts 1 and 2): 0.30 mg-1 subject | Subjects with Final Compound 1 Total Daily Dose of 0.03 mg (Cohorts 1 and 2): 0.03 mg-3 subjects | Subjects with Final Compound 1 Total Daily Dose of 0.05 mg (Cohorts 1 and 2): 0.05 mg-9 subjects | Subjects with Final Compound 1 Total Daily Dose of 0.10 mg (Cohorts 1 and 2): 0.10 mg-7 subjects | Subjects with Final Compound 1 Total Daily Dose of 0.30 mg (Cohorts 1 and 2): 0.30 mg-1 subject | Adverse Events (no. of subjects) leading to Decrease of Dose: Chest pain [3]: 0 subjects | Adverse Events (no. of subjects) leading to Decrease of Dose: Diarrhoea [3]: 0 subjects | Adverse Events (no. of subjects) leading to Decrease of Dose: Erythema [3]: 0 subjects | Adverse Events (no. of subjects) leading to Decrease of Dose: Headache [3]: 0 subjects | Adverse Events (no. of subjects) leading to Decrease of Dose: Jaw pain [3]: 0 subjects | Adverse Events (no. of subjects) leading to Decrease of Dose: Nausea [3]: 0 subjects | Adverse Events (no. of subjects) leading to Decrease of Dose: Vomiting [3]: 0 subjects | Adverse Events (no. of subjects) leading to Decrease of Dose: Chest pain [4]: 0 subjects | Adverse Events (no. of subjects) leading to Decrease of Dose: Diarrhoea [4]: 1 subjects | Adverse Events (no. of subjects) leading to Decrease of Dose: Erythema [4]: 0 subjects | Adverse Events (no. of subjects) leading to Decrease of Dose: Headache [4]: 2 subjects | Adverse Events (no. of subjects) leading to Decrease of Dose: Jaw pain [4]: 0 subjects | Adverse Events (no. of subjects) leading to Decrease of Dose: Nausea [4]: 1 subjects | Adverse Events (no. of subjects) leading to Decrease of Dose: Vomiting [4]: 4 subjects | Adverse Events (no. of subjects) leading to Decrease of Dose: Chest pain [5]: 1 subjects | Adverse Events (no. of subjects) leading to Decrease of Dose: Diarrhoea [5]: 0 subjects | Adverse Events (no. of subjects) leading to Decrease of Dose: Erythema [5]: 0 subjects | Adverse Events (no. of subjects) leading to Decrease of Dose: Headache [5]: 5 subjects | Adverse Events (no. of subjects) leading to Decrease of Dose: Jaw pain [5]: 1 subjects | Adverse Events (no. of subjects) leading to Decrease of Dose: Nausea [5]: 1 subjects | Adverse Events (no. of subjects) leading to Decrease of Dose: Vomiting [5]: 2 subjects | Adverse Events (no. of subjects) leading to Decrease of Dose: Chest pain [6]: 0 subjects | Adverse Events (no. of subjects) leading to Decrease of Dose: Diarrhoea [6]: 0 subjects | Adverse Events (no. of subjects) leading to Decrease of Dose: Erythema [6]: 0 subjects | Adverse Events (no. of subjects) leading to Decrease of Dose: Headache [6]: 1 subjects | Adverse Events (no. of subjects) leading to Decrease of Dose: Jaw pain [6]: 0 subjects | Adverse Events (no. of subjects) leading to Decrease of Dose: Nausea [6]: 2 subjects | Adverse Events (no. of subjects) leading to Decrease of Dose: Vomiting [6]: 2 subjects | Adverse Events (no. of subjects) leading to Decrease of Dose: Chest pain [7]: 0 subjects | Adverse Events (no. of subjects) leading to Decrease of Dose: Diarrhoea [7]: 0 subjects | Adverse Events (no. of subjects) leading to Decrease of Dose: Erythema [7]: 0 subjects | Adverse Events (no. of subjects) leading to Decrease of Dose: Headache [7]: 0 subjects | Adverse Events (no. of subjects) leading to Decrease of Dose: Jaw pain [7]: 0 subjects | Adverse Events (no. of subjects) leading to Decrease of Dose: Nausea [7]: 0 subjects | Adverse Events (no. of subjects) leading to Decrease of Dose: Vomiting [7]: 0 subjects | Adverse Events (no. of subjects) leading to Decrease of Dose: Chest pain [8]: 0 subjects | Adverse Events (no. of subjects) leading to Decrease of Dose: Diarrhoea [8]: 0 subjects | Adverse Events (no. of subjects) leading to Decrease of Dose: Erythema [8]: 1 subjects | Adverse Events (no. of subjects) leading to Decrease of Dose: Headache [8]: 0 subjects | Adverse Events (no. of subjects) leading to Decrease of Dose: Jaw pain [8]: 0 subjects | Adverse Events (no. of subjects) leading to Decrease of Dose: Nausea [8]: 0 subjects | Adverse Events (no. of subjects) leading to Decrease of Dose: Vomiting [8]: 0 subjects | Adverse Events (no. of subjects) leading to Decrease of Dose: Chest pain [9]: 1 subjects | Adverse Events (no. of subjects) leading to Decrease of Dose: Diarrhoea [9]: 1 subjects | Adverse Events (no. of subjects) leading to Decrease of Dose: Erythema [9]: 1 subjects | Adverse Events (no. of subjects) leading to Decrease of Dose: Headache [9]: 8 subjects | Adverse Events (no. of subjects) leading to Decrease of Dose: Jaw pain [9]: 1 subjects | Adverse Events (no. of subjects) leading to Decrease of Dose: Nausea [9]: 4 subjects | Adverse Events (no. of subjects) leading to Decrease of Dose: Vomiting [9]: 8 subjects | Subjects unable to tolerate the starting dose (number) [10]: three | Subjects unable to tolerate the starting dose (percent) [10]: 15% | Subjects who tolerated the dose (Cohorts 1 and 2, 0.2 mg once daily): One | Tolerability of the dose (Cohorts 1 and 2, 0.4 mg once daily, highest dose administered (one subject)): not tolerated | Subjects who withdrew (Cohorts 1 and 2, Day 1): One | AEs considered moderate in intensity (within the Compound 1 group): 95% | AEs deemed by the investigator to be probably related to study drug (within the Compound 1 group): 90%
